Experimental data: patent US9557338B2 (SIGNAL PHARMACEUTICALS, LLC, priority 2012, dated 2017)
Read-outs that look alike come from different tables or passages of the source.

Columns and labels:
Assay type in all cases: cell-based
Phospho-p70S6K (T389) = assay: MSD assay, phospho-p70S6K (T389) in cell lysates
Description: Determination of Phospho-p70S6K (T389) in Cell Lysates.
MSD® biomarker detection assays provide a rapid and convenient method for measuring the total and phosphorylated levels of protein targets within a single small-volume sample. In the assay, an antibody for a specific protein target is coated on one electrode (or spot) per well. The samples (cell lysates) are added to the well with a solution containing the detection antibody labeled with an electrochemiluminescent (ECL) compound, MSD SULFOTAG™ label, over the course of one or more incubation periods. The total protein present in the sample binds to the capture antibodies immobilized on the working electrode surface; recruitment of the labeled detection antibody by bound phospho-p70S6K completes the sandwich. MSD Read Buffer that provides the appropriate chemical environment for ECL is added and the plate is read using an MSD SECTOR™ Imager. Inside the SECTOR Imager, a voltage is applied to the plate electrodes which cause the labels bound to the electrode surface to emit light. The instrument measures intensity of the emitted light to afford a quantitative measure of the amount of phosphorylated protein present in the sample.
Cells were plated in 96-well flat bottom plates at the required density determined for each cell line and the cells were allowed to equilibrate at 37° C., 5% CO2 overnight. The following day, the cells were treated with Compound 1 over a range of concentrations for one hour in 5% CO2 at 37° C. After the incubation period, the culture medium was removed carefully with an aspirator. The plate was placed on ice and 50 μL of 1× Tris Lysis Buffer were added to each well. The plate was placed on a shaker at 4° C. for one hour to lyse the cells. At that point, the plate was either frozen at −80° C. for later analysis or immediately assayed for phosphoproteins as described below. To monitor interassay variability, Compound 1 was compared among all plates as a reference standard.
The assay plate was incubated with 150 μL of MSD Blocking Buffer for one hour with shaking at room temperature. The plates were washed 3 times with Tris Wash Buffer. Then 35 μL of cell lysate was added to the wells and incubated for one hour with shaking at room temperature. The solution was removed from the wells and the plate was washed 3 times with wash buffer. Twenty-five microliters of the appropriate antibody solution was then incubated for one hour with shaking at room temperature. The solution was removed from the wells and the plate was washed 3 times with wash buffer. Then 150 μL of 1×MSD Read Buffer T was added to each well. The plate was read on the SECTOR Imager plate reader.

p70S6K = assay: Luminex multiplex assay, p70S6K phosphorylation in cell lysates
GSK-3β = assay: MSD assay, GSK-3β phosphorylation in cell lysates
Phospho-GSK3β(S9) = assay: Luminex multiplex assay, Phospho-GSK3β(S9); conditions: PC3 cell line; read-out: Luminex GSK-3β
In short: (§1)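 Cells (PC3; HCT-116, MDA-MB-231 and HT29 with 500 ng/mL recombinant human IGF-I for the final 10 min) treated with compound or rapamycin over a concentration range for 1 h at 37° C, 5% CO2. Lysates read by bead-based Luminex sandwich immunoassay, 3 h at room temperature, RPE anti-rabbit detection, quantified against phosphoprotein standard curves.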

Phospho-PRAS40(T246) = assay: Luminex multiplex assay, Phospho-PRAS40(T246); conditions: PC3 cell line; read-out: Luminex PRAS40
In short: as §1

[1] = PC3 cell line, read-out: MSD p70S6K
[2] = PC3 cell line, read-out: Luminex p70S6K
[3] = PC3 cell line, read-out: MSD GSK-3β

IC50 (Phospho-p70S6K (T389); [1]) [nM]	IC50 (GSK-3β; [3]) [nM]	SMILES	also measured
		COCCN1C(=O)CNc2ncc(-c3ccc(-c4nnc[nH]4)nc3C)nc21 [A-9, 1-(2-methoxyethyl)-7-(2-methyl-6-(4H-1,2,4-triazol-3-yl)pyridin-3-yl)-3,4-dihydropyrazino[2,3-b]pyrazin-2(1H)-one]	IC50 (Phospho-p70S6K (T389); Homo sapiens, HCT-116, HCT116 cell line, IGF, read-out: MSD p70S6K (IGF)): 846 nM; IC50 (Phospho-p70S6K (T389); Homo sapiens, U-87 MG, U87MG cell line, read-out: MSD p70S6K): 268 nM; IC50 (p70S6K; Homo sapiens, HCT-116, HCT116 cell line, IGF, read-out: Luminex p70S6K (IGF)): 103 nM; IC50 (p70S6K; Homo sapiens, U-87 MG, U87MG cell line, read-out: Luminex p70S6K): 37.7 nM; IC50 (GSK-3β; Homo sapiens, HCT-116, HCT116 cell line, IGF, read-out: MSD GSK-3β (IGF)): > 2000 nM; IC50 (GSK-3β; Homo sapiens, U-87 MG, U87MG cell line, read-out: MSD GSK-3β): > 2000 nM
46	> 1500	O=c1[nH]c2ncc(-c3ccc(-c4nc[nH]n4)cc3)nc2n1CCC1CCOCC1 [C-2]	IC50 (p70S6K; [2]): 30 nM; IC50 (Phospho-GSK3β(S9)): 255 nM; IC50 (Phospho-PRAS40(T246)): 180 nM
4	213	Cc1nc(-c2nnc[nH]2)ccc1-c1cnc2c(n1)N(CCC1CCOCC1)C(=O)CN2 [C-9]	IC50 (Phospho-GSK3β(S9)): 43 nM; IC50 (Phospho-PRAS40(T246)): 37 nM
436	> 5000	CCn1c(=O)[nH]c2ncc(-c3ccc(-c4ncn[nH]4)c(F)c3C)nc21 [C-12]	IC50 (p70S6K; [2]): 79 nM; IC50 (Phospho-GSK3β(S9)): 936 nM; IC50 (Phospho-PRAS40(T246)): 1120 nM
31	366	COCCN1C(=O)CNc2ncc(-c3ccc(-c4nnc[nH]4)nc3C)nc21 [C-14]	IC50 (Phospho-GSK3β(S9)): 366 nM; IC50 (Phospho-PRAS40(T246)): 61 nM
82	> 500	COC1CCC(N2C(=O)CNc3ncc(-c4ccc(C(C)(C)O)nc4)nc32)CC1 (stereo not shown) [C-15]	IC50 (p70S6K; [2]): 32 nM; IC50 (Phospho-GSK3β(S9)): 240 nM; IC50 (Phospho-PRAS40(T246)): 96 nM
13	152	COC1CCC(N2C(=O)CNc3ncc(-c4ccc(-c5nnc[nH]5)nc4C)nc32)CC1 (stereo not shown) [C-16]	IC50 (p70S6K; [2]): 3 nM; IC50 (Phospho-GSK3β(S9)): 141 nM; IC50 (Phospho-PRAS40(T246)): 43 nM
31	181	CCN1C(=O)CNc2ncc(-c3ccc(-c4nnc[nH]4)nc3C)nc21 [C-54]	IC50 (p70S6K; [2]): 13 nM; IC50 (Phospho-GSK3β(S9)): 370 nM; IC50 (Phospho-PRAS40(T246)): 39 nM
80	394	Cc1nc(-c2nnc[nH]2)ccc1-c1cnc2c(n1)N(C(C)C)C(=O)CN2 [C-69]	IC50 (Phospho-GSK3β(S9)): 342 nM; IC50 (Phospho-PRAS40(T246)): 285 nM
1	> 1.5	COC1CCC(N2C(=O)CNc3ncc(-c4cnc(-c5ncn[nH]5)cc4C)nc32)CC1 (stereo not shown) [C-93]	IC50 (Phospho-GSK3β(S9)): 2 nM
> 500	> 500	CCN1C(=O)CNc2ncc(-c3cnc4[nH]ccc4c3)nc21 [C-103]	IC50 (p70S6K; [2]): 150 nM; IC50 (Phospho-GSK3β(S9)): 153 nM; IC50 (Phospho-PRAS40(T246)): 696 nM
40	181	CC(C)N1C(=O)CNc2ncc(-c3ccc(-c4ncn[nH]4)nc3)nc21 [C-138]	
40	> 500	COC1CCC(N2C(=O)CNc3ncc(-c4ccc(-c5ncn[nH]5)nc4)nc32)CC1 (stereo not shown) [C-139]	
70	> 500	O=C1CNc2ncc(-c3ccc(-c4nc[nH]n4)nc3)nc2N1C1CCC(O)CC1 (stereo not shown) [C-140]	
18	> 500	Cc1cc(-c2nc[nH]n2)c(F)cc1-c1cnc2c(n1)N(CC1CCC(O)CC1)C(=O)CN2 (stereo not shown) [C-142]	
4	> 500	Cc1cc(-c2nc[nH]n2)c(F)cc1-c1cnc2c(n1)N(CC1CCC(O)CC1)CC(=O)N2 (stereo not shown) [C-143]	
> 500	> 500	O=C1CN([C@H]2CC[C@H](O)CC2)c2nc(-c3ccc(-c4nc[nH]n4)nc3)cnc2N1 [C-144]	
> 500	> 500	O=C1CNc2ncc(-c3cccc4[nH]ccc34)nc2N1CCC1CCOCC1 [C-145]	
12	> 500	COC1CCC(N2CC(=O)Nc3ncc(-c4ccc(-c5ncn[nH]5)nc4)nc32)CC1 (stereo not shown) [C-146]	

IC50 (Phospho-p70S6K (T389); [1]) [nM]	IC50 (GSK-3β; [3]) [nM]	SMILES	also measured
< 1.5	> 500	Cc1cc(-c2nc[nH]n2)c(F)cc1-c1cnc2c(n1)N(CC1CCC(O)CC1)C(=O)CN2 (stereo not shown) [C-147]	
< 1.5	65	COC1CCC(N2CC(=O)Nc3ncc(-c4cc(F)c(-c5nc[nH]n5)cc4C)nc32)CC1 (stereo not shown) [C-148]	
173	> 5000	O=C1CN(CC2CCC(O)CC2)c2nc(-c3ccc(-c4nc[nH]n4)nc3)cnc2N1 (stereo not shown) [C-149]	
38	> 500	CCN1C(=O)CNc2ncc(-c3ccc(-c4ncn[nH]4)nc3)nc21 [C-150]	
120	> 500	COCCN1C(=O)CNc2ncc(-c3ccc(-c4ncn[nH]4)nc3)nc21 [C-151]	
20	> 500	O=C1CNc2ncc(-c3ccc(-c4nc[nH]n4)nc3)nc2N1C1CCOCC1 [C-152]	
> 500	> 500	O=C1CN(C2CCC(O)CC2)c2nc(-c3ccc(-c4nc[nH]n4)nc3)cnc2N1 (stereo not shown) [C-153]	
1520	> 5000	O=C1CN(CC2CCC(O)CC2)c2nc(-c3ccc(-c4nc[nH]n4)nc3)cnc2N1 (stereo not shown) [C-154]	
40	240	Cc1cc(-c2nc[nH]n2)c(F)cc1-c1cnc2c(n1)N([C@H]1CC[C@@H](O)CC1)C(=O)CN2 [C-155]	
6	> 500	COC1CCC(CN2C(=O)CNc3ncc(-c4ccc(-c5nc[nH]n5)nc4)nc32)CC1 (stereo not shown) [C-159]	
< 1.5	> 500	CO[C@H]1CC[C@@H](CN2CC(=O)Nc3ncc(-c4cc(F)c(-c5nc[nH]n5)cc4C)nc32)CC1 [C-160]	
385	2790	O=C1CNc2ncc(-c3ccnc4[nH]ccc34)nc2N1CCC1CCOCC1 [C-161]	
4750	> 5000	O=C1CNc2ncc(-c3cccc4[nH]cnc34)nc2N1CCC1CCOCC1 [C-162]	
> 500	> 500	COC1CCC(CN2CC(=O)Nc3ncc(-c4cc(F)c(-c5nc[nH]n5)cc4C)nc32)CC1 (stereo not shown) [C-163]	
1	275	Cc1cc(-c2nc[nH]n2)ncc1-c1cnc2c(n1)N(CC1CCOCC1)CC(=O)N2 [C-164]	
> 500	> 500	CCN1C(=O)CNc2ncc(-c3ccc4[nH]ccc4n3)nc21 [C-166]	
< 1.5	< 1.5	COC1CCC(CN2C(=O)CNc3ncc(-c4cc(F)c(-c5nc[nH]n5)cc4C)nc32)CC1 (stereo not shown) [C-167]	
419	2820	O=C1CN(CCC2CCOCC2)c2nc(-c3c[nH]c4ncccc34)cnc2N1 [C-169]	
